Laboratory results published in paper PMC4310094, “FXR antagonism of NSAIDs contributes to drug-induced liver injury identified by systems pharmacology approach” (Scientific Reports, 2015).

Tests used:
[1] = test system: caspase9; experiment: Western blot of caspase9 in HepG2 cells; assay type: cell-based; details: Figure 6B
Procedure: (§1) In subsequent experiments, we further investigated whether NSAIDs could induce STAT3 activation and suppress the expression of caspase9. […] The phosphorylated STAT3 was determined by western blot analysis. […] For STAT3 phosphorylation and caspase9 expression analysis, HepG2 cells were seeded in 6-well plates and then treated with varied compounds in serum-free DMEM media. After 24 h incubation, cells were washed twice with ice-cold phosphate buffered saline (PBS) and lysed in RIPA buffer including 5 mM NaF, 1 mM PMSF, 2 mM NaVO4 and protease inhibitor cocktail. Lysates were then centrifuged at 10,000 rpm for 10 min at 4°and the protein concentrations were determined by BCA assay. Whole cell extracts was resolved on 10% SDS-PAGE and transferred to polyvinylidene fluoride (PVDF) membrane. The membrane was blotted with antibodies against p-STAT3, total-STAT3, caspase9 and GAPDH, and then examined by ECL detection system according to the manufacturer's instructions (Amersham Pharmacia Biotech).

[2] = test system: STAT3; experiment: Western blot of STAT3 phosphorylation in HepG2 cells; assay type: cell-based; details: Figure 6A
Procedure: as §1

[3] = molecular target: T1, Farnesoid X Receptor (FXR) (Homo sapiens, UniProt Q96RI1); experiment: Yeast two-hybrid assay, hFXR agonist testing (FXR-LBD/SRC1 interaction, α-galactosidase); assay type: cell-based; details: DMSO = 1
T1 construct: Human FXRα-LBD (amino acids 200–473); expressed in transfected cells; host or cells: yeast strain AH109
T1 sequence (Q96RI1 214-486): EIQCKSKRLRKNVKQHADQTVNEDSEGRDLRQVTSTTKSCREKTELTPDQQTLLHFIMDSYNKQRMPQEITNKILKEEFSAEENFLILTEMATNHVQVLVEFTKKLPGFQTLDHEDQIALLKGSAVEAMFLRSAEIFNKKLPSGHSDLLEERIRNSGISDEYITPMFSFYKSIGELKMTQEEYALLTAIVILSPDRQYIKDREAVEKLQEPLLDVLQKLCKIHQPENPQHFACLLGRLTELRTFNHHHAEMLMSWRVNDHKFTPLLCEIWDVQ
From the text: (§2) Yeast two-hybrid system is a powerful tool for identifying potential agonist or antagonist of nuclear receptor based on the protein-protein interaction between nuclear receptor and its transcriptional co-activator[34]. Based on the predicted results through our systems pharmacology approach, the yeast two-hybrid system was set up according to a previous study[35] to test whether NSAIDs can modulate the activation of FXR. A series of NSAIDs with diverse chemical structures were collected and experimentally evaluated for their effects on the interaction between FXR and its co-activator SRC1. […] The previous studies reported an immune-mediated mechanism that is related to liver toxicity induced by oxicams and coxibs.
(§3) The yeast expression plasmids pGADT7 and pGBKT7 were from Clontech (Palo Alto, CA). Human FXRα-LBD (amino acids 200–473) was subcloned into vector pGBKT-7 using NdeI and BamHI restrict enzyme sites. The primers used for PCR amplification were listed as follows: FXRα-LBD (sense) 5′-[…]-3′, (anti-sense) 5′-[…]-3′. The combination plasmid pGADT7-SRC1 was prepared as described previously. The luciferase reporter plasmid pGL3-FXRE-Luc was generously donated by Dr. Majlis Hermansson (AstraZeneca R&D Mölndal, Sweden).
(§4) A yeast two-hybrid system for FXRα was constructed by yeast co-transformation with pGBKT7-FXR LBD and pGADT7-SRC1 according to manufacturer's protocols. […] 24 h later, we harvested the yeast cells and analyzed α-galactosidase activity using p-nitrophenyl α-D-galactopyranoside as the substrate.

[4] = molecular target: T1, Farnesoid X Receptor (FXR); experiment: Yeast two-hybrid assay, FXR antagonist testing (compounds plus 10 μM CDCA); assay type: cell-based; details: for IC50: hFXR-LBD/SRC1, determined if inhibition at 10 μM > 50%
From the text: as §2, §3, §4

[5] = test system: SHP; experiment: qRT-PCR of FXR target gene SHP in HepG2 cells
Procedure: The mRNA levels of the FXR target genes were quantified by qRT-PCR.
The data were carried out in at least three independent experiments.
HepG2 cells were cultured at 37°C in DMEM media supplemented with 10% FBS. And then cells were seeded into 6-well plates and grew to 80–90% confluence. After incubation with the test compounds for 24 h, cells were harvested and total RNA was isolated using Trizol reagent. The first single-strand cDNA was synthesized using reverse transcriptase kit. The qRT-PCR was performed using Bio-Rad CFX96^TM real time PCR system according to the manufacturer's instruction with specific primers for the FXR target gene SHP (forward 5′-[sequence]-3′, reverse 5′-[sequence]-3′), CYP7A1 (forward 5′- [sequence]-3′, reverse 5′- [sequence]-3′) for detection of the transcripts. Transcription levels were normalized to GAPDH mRNA levels (forward 5′- [sequence]-3′, reverse 5′- [sequence]-3′). The relative RNA quantities were calculated using the comparative threshold cycles (Ct) method. The Ct for the SHP, CYP7A1 and GAPDH signals were determined in triplicate experiments.

Row | FXR activation (10 μM) [3] | inhibition at 10 µM [4] [%] | IC50 ([4]; yeast two hybrid) [µM] | SMILES | further results
1 |  |  |  | C[C@H](CCC(=O)O)[C@H]1CC[C@H]2[C@@H]3[C@H](O)C[C@@H]4C[C@H](O)CC[C@]4(C)[C@H]3CC[C@]12C [CDCA, chenodeoxycholic acid] | caspase9 levels on co-treatment with indomethacin ([1]; co-treated with indomethacin and CDCA): substantially attenuated back to the normal level; effect on indomethacin-induced STAT3 activation ([2]; CDCA pretreatment): suppresses indomethacin-induced STAT3 activation
2 | 1.31 | 93.3 | 8.48 | O=C(O)c1cc(-c2ccc(F)cc2F)ccc1O [Diflunisal] | 
3 |  |  |  | COc1ccc2c(c1)c(CC(=O)O)c(C)n2C(=O)c1ccc(Cl)cc1 [Indomethacin] | caspase9 expression ([1]; western blot): significantly stimulates caspase9 expression in a dose-dependent manner; biological activity on genes SHP and CYP7A1 compared with ibuprofen [5]: higher biological activity than ibuprofen; STAT3 phosphorylation level ([2]; western blot): significantly increases the STAT3 phosphorylation level
4 | 0.99 | 91.9 | 0.7 | CCCCC1C(=O)N(c2ccccc2)N(c2ccccc2)C1=O [Phenylbutazone] | FXR antagonist potency compared with guggulsterones (GS) ([4]; yeast two hybrid): more potent FXR antagonist than guggulsterones
5 | 1.13 | 30.7 | > 25 | CN1C(C(=O)Nc2ccccn2)=C(O)c2ccccc2S1(=O)=O [Piroxicam] | 
6 | 1.18 | 39.9 | > 25 | CS(=O)(=O)c1ccc(C2=C(c3ccccc3)C(=O)OC2)cc1 [Rofecoxib] | 
